Molecular target: R232-STING (Homo sapiens, UniProt Q86WV6, H232R)
Test: biochemical

Sequence of R232-STING (Q86WV6 155-341 H232R): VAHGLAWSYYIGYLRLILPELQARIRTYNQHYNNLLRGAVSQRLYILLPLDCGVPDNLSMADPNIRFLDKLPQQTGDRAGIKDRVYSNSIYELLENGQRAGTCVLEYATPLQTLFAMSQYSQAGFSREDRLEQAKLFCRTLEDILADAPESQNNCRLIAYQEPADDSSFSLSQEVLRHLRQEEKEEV

Ki	Compound
> 0.99 µM	CCn1nc(C)cc1-c1nnc(-c2cc(C(N)=O)cc3c2cnn3C[C@H]2CCCN2C)[nH]1 [ZZZ027, 4-[5-(1-ethyl-3-methyl-1H-pyrazol-5-yl)-4H-1,2,4-triazol-3-yl]-1-{[(2R)-1-methylpyrrolidin-2-yl]methyl}-1H-indazole-6-carboxamide]
0.726 µM	CCn1nc(C)cc1-c1nnc(-c2cc(C(N)=O)cc3c2cnn3CC23CCCN2CCC3)[nH]1 [ZZZ019, 4-[5-(1-ethyl-3-methyl-1H-pyrazol-5-yl)-4H-1,2,4-triazol-3-yl]-1-[(tetrahydro-1H-pyrrolizin-7a(5H)-yl)methyl]-1H-indazole-6-carboxamide]
0.773 µM	CCn1nc(C)cc1-c1n[nH]c(-c2cc(C(N)=O)cc3c2cnn3CCN2CCC3CC3C2)n1 (stereo not shown) [ZZZ095, 1-[2-(3-azabicyclo[4.1.0]heptan-3-yl)ethyl]-4-[3-(1-ethyl-3-methyl-1H-pyrazol-5-yl)-1H-1,2,4-triazol-5-yl]-1H-indazole-6-carboxamide]
0.944 µM	CCn1nc(C)cc1-c1n[nH]c(-c2cc(C(N)=O)cc3c2cnn3CCN2CC[C@H](OC)C2)n1 [ZZZ106, 4-[3-(1-ethyl-3-methyl-1H-pyrazol-5-yl)-1H-1,2,4-triazol-5-yl]-1-{2-[(3S)-3-methoxypyrrolidin-1-yl]ethyl}-1H-indazole-6-carboxamide]
0.561 µM	CCn1nc(C)cc1-c1nnc(-c2cc(C(N)=O)cc3c2cnn3CCCN2CCO[C@@H](C)C2)[nH]1 (racemic) [ZZZ029, 4-[5-(1-ethyl-3-methyl-1H-pyrazol-5-yl)-4H-1,2,4-triazol-3-yl]-1-{3-[(2S)-2-methylmorpholin-4-yl]propyl}-1H-indazole-6-carboxamide]
0.964 µM	CCn1nc(C)cc1-c1nnc(-c2cc(C(N)=O)cc3c2cnn3C[C@H]2C[C@H]3CC[C@@H](C2)N3)[nH]1 [ZZZ065, 1-{[(1R,3r,5S)-8-azabicyclo[3.2.1]octan-3-yl]methyl}-4-[5-(1-ethyl-3-methyl-1H-pyrazol-5-yl)-4H-1,2,4-triazol-3-yl]-1H-indazole-6-carboxamide]
0.572 µM	CCn1nc(C)cc1-c1nnc(-c2cc(C(N)=O)cc3c2cnn3CC2CC3(CCN(C)CC3)C2)[nH]1 [ZZZ033, 4-[5-(1-ethyl-3-methyl-1H-pyrazol-5-yl)-4H-1,2,4-triazol-3-yl]-1-[(7-methyl-7-azaspiro[3.5]nonan-2-yl)methyl]-1H-indazole-6-carboxamide]
> 0.99 µM	CCn1nc(C)cc1-c1nnc(-c2cc(C(N)=O)cc3c2cnn3C[C@@H]2CCC3(CNC3)O2)[nH]1 (racemic) [ZZZ063, 4-[5-(1-ethyl-3-methyl-1H-pyrazol-5-yl)-4H-1,2,4-triazol-3-yl]-1-{[(6S)-5-oxa-2-azaspiro[3.4]octan-6-yl]methyl}-1H-indazole-6-carboxamide]
> 0.99 µM	CCn1nc(C)cc1-c1nnc(-c2cc(C(N)=O)cc3c2cnn3CCN2CCC2)[nH]1 [ZZZ039, 1-[2-(azetidin-1-yl)ethyl]-4-[5-(1-ethyl-3-methyl-1H-pyrazol-5-yl)-4H-1,2,4-triazol-3-yl]-1H-indazole-6-carboxamide]
> 0.99 µM	CCN1CCCC[C@@H]1Cn1ncc2c(-c3nnc(-c4cc(C)nn4CC)[nH]3)cc(C(N)=O)cc21 (racemic) [ZZZ014, 4-[5-(1-ethyl-3-methyl-1H-pyrazol-5-yl)-4H-1,2,4-triazol-3-yl]-1-{[(2R)-1-ethylpiperidin-2-yl]methyl}-1H-indazole-6-carboxamide]
0.748 µM	CCn1nc(C)cc1-c1nnc(-c2cc(C(N)=O)cc3c2cnn3CCN2CCC(C)CC2)[nH]1 [ZZZ018, 4-[5-(1-ethyl-3-methyl-1H-pyrazol-5-yl)-4H-1,2,4-triazol-3-yl]-1-[2-(4-methylpiperidin-1-yl)ethyl]-1H-indazole-6-carboxamide]
0.373 µM	CCn1nc(C)cc1-c1n[nH]c(-c2cc(C(N)=O)cc3c2cnn3CCN2CCO[C@@H](C)C2)n1 (racemic) [YY08, 4-[5-(1-ethyl-3-methyl-1H-pyrazol-5-yl)-4H-1,2,4-triazol-3-yl]-1-{2-[(2S)-2-methylmorpholin-4-yl]ethyl}-1H-indazole-6-carboxamide]
0.641 µM	CCn1nc(C)cc1-c1nnc(-c2cc(C(N)=O)cc3c2cnn3C[C@H](C)C2CCNCC2)[nH]1 [ZZZ078, 4-[5-(1-ethyl-3-methyl-1H-pyrazol-5-yl)-4H-1,2,4-triazol-3-yl]-1-[(2R)-2-(piperidin-4-yl)propyl]-1H-indazole-6-carboxamide]
> 0.99 µM	CCn1nc(C)cc1-c1n[nH]c(-c2cc(C(N)=O)cc3c2cnn3CCN2CC[C@@H](O)C2)n1 [ZZZ107, 4-[3-(1-ethyl-3-methyl-1H-pyrazol-5-yl)-1H-1,2,4-triazol-5-yl]-1-{2-[(3R)-3-hydroxypyrrolidin-1-yl]ethyl}-1H-indazole-6-carboxamide]
0.976 µM	CCn1nc(C)cc1-c1nnc(-c2cc(C(N)=O)cc3c2cnn3C[C@@H](C)C2CCNCC2)[nH]1 [ZZZ076, 4-[5-(1-ethyl-3-methyl-1H-pyrazol-5-yl)-4H-1,2,4-triazol-3-yl]-1-[(2S)-2-(piperidin-4-yl)propyl]-1H-indazole-6-carboxamide]

Second part, the compound before the results:

Compound	Ki
CCn1nc(C)cc1-c1nnc(-c2cc(C(N)=O)cc3c2cnn3C[C@H]2CC23CCNCC3)[nH]1 (racemic) [ZZZ072, 1-{[(1S)-6-azaspiro[2.5]octan-1-yl]methyl}-4-[5-(1-ethyl-3-methyl-1H-pyrazolo-5-yl)-4H-1,2,4-triazol-3-yl]-1H-indazole-6-carboxamide]	0.835 µM
CCn1nc(C)c(C(F)(F)F)c1-c1nnc(-c2cc(C(N)=O)cc3c2cnn3C)[nH]1 [ZZZ048, 4-{5-[1-ethyl-3-methyl-4-(trifluoromethyl)-1H-pyrazol-5-yl]-4H-1,2,4-triazol-3-yl}-1-methyl-1H-indazole-6-carboxamide]	0.912 µM
CCn1nc(C)cc1-c1nc(-c2nc(C(N)=O)cc3c2cnn3C)n(CCNC)n1 [ZZZ126, 4-{3-(1-ethyl-3-methyl-1H-pyrazol-5-yl)-1-[2-(methylamino)ethyl]-1H-1,2,4-triazol-5-yl}-1-methyl-1H-pyrazolo[4,3-c]pyridine-6-carboxamide]	> 0.99 µM
CCn1nc(C)cc1-c1nnc(-c2cc(C(N)=O)cc3c2nnn3C)[nH]1 [ZZZ002, 4-[5-(1-ethyl-3-methyl-1H-pyrazol-5-yl)-4H-1,2,4-triazol-3-yl]-1-methyl-1H-benzotriazole-6-carboxamide]	> 0.99 µM
CCn1nc(C)cc1-c1nnc(-c2cc(C(N)=O)cc3c2cnn3Cc2noc3c2CNCC3)[nH]1 [ZZZ068, 4-[5-(1-ethyl-3-methyl-1H-pyrazol-5-yl)-4H-1,2,4-triazol-3-yl]-1-[(4,5,6,7-tetrahydro[1,2]oxazolo[4,5-c]pyridin-3-yl)methyl]-1H-indazole-6-carboxamide]	> 0.99 µM
CCn1nc(C)cc1-c1n[nH]c(-c2cc(C(N)=O)cc3c2cnn3CCN2CC(CO)OCC2C)n1 (stereo not shown) [ZZZ096, 4-[3-(1-ethyl-3-methyl-1H-pyrazol-5-yl)-1H-1,2,4-triazol-5-yl]-1-{2-[2-(hydroxymethyl)-5-methylmorpholin-4-yl]ethyl}-1H-indazole-6-carboxamide]	0.861 µM
CCn1nc(C(=O)O)cc1-c1n[nH]c(-c2nc(C(N)=O)cc3c2cnn3C)n1 [ZZZ004, 5-[5-(6-carbamoyl-1-methyl-1H-pyrazolo[4,3-c]pyridin-4-yl)-1H-1,2,4-triazol-3-yl]-1-ethyl-1H-pyrazole-3-carboxylic acid]	> 0.09 µM
CCn1nc(C)cc1-c1n[nH]c(-c2cc(C(N)=O)cc3c2cnn3CCN(C)C2CCC2)n1 [ZZZ108, 1-{2-[cyclobutyl(methyl)amino]ethyl}-4-[3-(1-ethyl-3-methyl-1H-pyrazol-5-yl)-1H-1,2,4-triazol-5-yl]-1H-indazole-6-carboxamide]	0.85 µM
CCn1nc(CO)c(F)c1-c1nc(-c2nc(C(N)=O)cc3c2cnn3C)n(C)n1 [ZZZ052, 4-{3-[1-ethyl-4-fluoro-3-(hydroxymethyl)-1H-pyrazol-5-yl]-1-methyl-1H-1,2,4-triazol-5-yl}-1-methyl-1H-pyrazolo[4,3-c]pyridine-6-carboxamide]	> 0.99 µM
CCn1nc(C)cc1-c1n[nH]c(-c2cc(C(N)=O)cc3c2cnn3CCN2CCC23CC3)n1 [ZZZ093, 1-[2-(4-azaspiro[2.3]hexan-4-yl)ethyl]-4-[3-(1-ethyl-3-methyl-1H-pyrazol-5-yl)-1H-1,2,4-triazol-5-yl]-1H-indazole-6-carboxamide]	> 0.99 µM
CCN(CCC#N)CCn1ncc2c(-c3nc(-c4cc(C)nn4CC)n[nH]3)cc(C(N)=O)cc21 [ZZZ104, 1-{2-[(2-cyanoethyl)(ethyl)amino]ethyl}-4-[3-(1-ethyl-3-methyl-1H-pyrazol-5-yl)-1H-1,2,4-triazol-5-yl]-1H-indazole-6-carboxamide]	0.806 µM
CCc1nc(C)n(C)c1-c1n[nH]c(-c2cc(C(N)=O)cc3c2cnn3C)n1 [ZZZ056, 4-[3-(4-ethyl-1,2-dimethyl-1H-imidazol-5-yl)-1H-1,2,4-triazol-5-yl]-1-methyl-1H-indazole-6-carboxamide]	> 0.99 µM
Cn1ncc2c(-c3nc(-c4cc(C(F)(F)F)nn4CCC(=O)O)n[nH]3)cc(C(N)=O)cc21 [ZZZ085, 3-{5-[5-(6-carbamoyl-1-methyl-1H-indazol-4-yl)-1H-1,2,4-triazol-3-yl]-3-(trifluoromethyl)-1H-pyrazol-1-yl}propanoic acid]	0.0442 µM
CCn1nc(C)cc1-c1nnc(-c2cc(C(N)=O)cc3nn(CCN(C)C)cc23)[nH]1 [ZZZ006, 2-[2-(dimethylamino)ethyl]-4-[5-(1-ethyl-3-methyl-1H-pyrazol-5-yl)-4H-1,2,4-triazol-3-yl]-2H-indazole-6-carboxamide]	> 0.99 µM
CCn1nc(C)cc1-c1n[nH]c(-c2cc(C(N)=O)cc3c2cnn3CCN2C[C@H](O)[C@H]2C)n1 [ZZZ091, 4-[3-(1-ethyl-3-methyl-1H-pyrazol-5-yl)-1H-1,2,4-triazol-5-yl]-1-{2-[(2R,3S)-3-hydroxy-2-methylazetidin-1-yl]ethyl}-1H-indazole-6-carboxamide]	0.831 µM
CCn1nc(C)cc1-c1nnc(-c2cc(C(N)=O)cc3c2cnn3[C@H](C)CCCN(C)C)[nH]1 (racemic) [ZZZ031, 1-[(2R)-5-(dimethylamino)pentan-2-yl]-4-[5-(1-ethyl-3-methyl-1H-pyrazol-5-yl)-4H-1,2,4-triazol-3-yl]-1H-indazole-6-carboxamide]	> 0.99 µM
